Results reported in patent US20260042764A1, “COMPOSITIONS AND METHODS FOR INHIBITION OF KRAS” (TheRas, Inc., priority 2022, published 2026).

Experiments:
[1] = molecular target: T1, Avi-KRAS WT (2-169) GTP/RAF1 RBD-3xFLAG (51-131) (Homo sapiens, UniProt P01116); experiment: Raf1-KRAS WT-GTP disruption HTRF assay (Biological Example 3); type: binding; settings: KRAS WT, GTP-loaded
T1 construct: Avi-KRAS WT (2-169)
How it was run: (§1)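 HTRF PPI read-out (ex 320 nm, em 615 nm) after 1 h RT incubation with shaking; data as % activity vs DMSO (100%), IC50 from curve fit. Complex 50 nM, RBD reagent 75 nM; compound 30-0.005 μM, 3-fold.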

[2] = molecular target: T2, Avi-KRAS G12V (1-169) GppNHp/RAF1 RBD-3xFLAG (52-151) (Homo sapiens, UniProt P01116, G12V); experiment: Raf1-KRAS G12V-GppNHP disruption HTRF assay (Biological Example 1); type: binding
T2 construct: Avi-KRAS G12V (1-169)
T2 sequence (P01116 1-169 isoform P01116-2 G12V): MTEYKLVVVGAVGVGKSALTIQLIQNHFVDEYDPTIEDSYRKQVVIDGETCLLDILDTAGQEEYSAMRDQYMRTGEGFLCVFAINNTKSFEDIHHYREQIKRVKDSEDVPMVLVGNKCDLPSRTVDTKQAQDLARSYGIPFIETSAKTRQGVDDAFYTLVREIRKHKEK
How it was run: (§2)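 Percent activity versus DMSO (100%) was derived from HTRF signal after KRAS–RAF1 RBD protein mix was incubated 1 h at room temperature with shaking and detection reagents were added for a further 1 h.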

[3] = molecular target: T3, Avi-KRAS G12D (1-169) GppNHp/RAF1 RBD-3xFLAG (52-151) (Homo sapiens, UniProt P01116, G12D); experiment: Raf1-KRAS G12D-GppNHP disruption HTRF assay (Biological Example 1); type: binding
T3 construct: Avi-KRAS G12D (1-169)
T3 sequence (P01116 1-169 isoform P01116-2 G12D): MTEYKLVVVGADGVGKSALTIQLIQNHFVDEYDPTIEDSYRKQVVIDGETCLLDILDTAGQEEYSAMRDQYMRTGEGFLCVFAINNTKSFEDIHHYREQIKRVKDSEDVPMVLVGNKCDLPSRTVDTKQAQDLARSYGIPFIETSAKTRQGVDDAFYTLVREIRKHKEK
How it was run: as §2

[4] = molecular target: T4, Avi-KRAS WT (1-169) GppNHp/RAF1 RBD-3xFLAG (52-151) (Homo sapiens, UniProt P01116); experiment: Raf1-KRAS WT-GppNHP disruption HTRF assay (Biological Example 1); type: binding
T4 construct: Avi-KRAS WT (1-169)
T4 sequence (P01116 1-169 isoform P01116-2): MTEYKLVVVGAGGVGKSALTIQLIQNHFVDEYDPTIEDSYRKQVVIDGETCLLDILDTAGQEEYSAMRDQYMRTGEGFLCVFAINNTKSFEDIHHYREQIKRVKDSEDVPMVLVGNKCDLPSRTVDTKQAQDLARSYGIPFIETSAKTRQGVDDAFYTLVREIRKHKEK
How it was run: as §2

[5] = molecular target: T5, Avi-KRAS G12V (2-169) GTP/RAF1 RBD-3xFLAG (51-131) (Homo sapiens, UniProt P01116, G12V); experiment: Raf1-KRAS G12V-GTP disruption HTRF assay (Biological Example 3); type: binding; settings: KRAS G12V, GTP-loaded
T5 construct: Avi-KRAS G12V (2-169)
T5 sequence (P01116 2-169 isoform P01116-2 G12V): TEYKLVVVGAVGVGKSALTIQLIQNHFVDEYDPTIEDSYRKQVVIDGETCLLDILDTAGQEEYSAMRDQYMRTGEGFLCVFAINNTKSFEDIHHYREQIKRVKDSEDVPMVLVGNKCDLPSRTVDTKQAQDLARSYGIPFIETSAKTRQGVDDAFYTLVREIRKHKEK
How it was run: as §1

[6] = molecular target: T6, Avi-KRAS G12R (1-169) GppNHp/RAF1 RBD-3xFLAG (52-151) (Homo sapiens, UniProt P01116, G12R); experiment: Raf1-KRAS G12R-GppNHP disruption HTRF assay (Biological Example 1); type: binding
T6 construct: Avi-KRAS G12R (1-169)
T6 sequence (P01116 1-169 isoform P01116-2 G12R): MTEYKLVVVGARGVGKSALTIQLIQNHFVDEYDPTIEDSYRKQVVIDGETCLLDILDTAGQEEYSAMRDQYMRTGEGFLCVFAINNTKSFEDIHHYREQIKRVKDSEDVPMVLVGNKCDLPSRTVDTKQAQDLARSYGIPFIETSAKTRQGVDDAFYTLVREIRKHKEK
How it was run: as §2

SW620 cells (KRAS G12V) = experiment: Cell-based pERK HTRF assay in SW620 cell (Biological Example 4)
How it was run: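 In SW620 cells grown in RPMI with 10% FBS, a 4 h compound treatment (0.25% DMSO, 9-point curve from 1 μM) preceded lysis. Phospho-ERK levels were then read by time-resolved FRET at 615 nm emission.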

[7] = KRAS G12V, GppNHp-loaded, Table 11
[8] = KRAS G12D, GppNHp-loaded, Table 11
[9] = KRAS WT, GppNHp-loaded, Table 11
[10] = KRAS G12R, GppNHp-loaded, Table 11
[11] = KRAS G12V, GppNHp-loaded, class symbols
[12] = KRAS G12D, GppNHp-loaded, class symbols
[13] = KRAS WT, GppNHp-loaded, class symbols
[14] = KRAS G12R, GppNHp-loaded, class symbols
[15] = Homo sapiens, SW-620, SW620 (KRAS G12V) cells
[16] = Homo sapiens, SW-620, SW620 (KRAS G12V) cells, pERK HTRF, class symbols
[17] = Homo sapiens, SW-620, SW620 (KRAS G12V) cells, pERK HTRF

T1 sequence (P01116 2-169 isoform P01116-2): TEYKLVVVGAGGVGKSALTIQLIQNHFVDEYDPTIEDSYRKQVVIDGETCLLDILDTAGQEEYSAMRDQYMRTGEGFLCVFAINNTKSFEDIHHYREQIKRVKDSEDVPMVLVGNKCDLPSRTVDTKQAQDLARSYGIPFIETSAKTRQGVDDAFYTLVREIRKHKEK

Compound | IC50 [1] | IC50 [2, 7] | IC50 [3, 8] | IC50 [4, 9] | IC50 [5] | IC50 [6, 10] | IC50 (SW620 cells (KRAS G12V); SW620 (KRAS G12V) cells) | IC50 (SW620 cells (KRAS G12V); SW620 (KRAS G12V) cells, pERK HTRF) | IC50 [2, 11] | IC50 [3, 12] | IC50 [4, 13] | IC50 [6, 14] | IC50 (SW620 cells (KRAS G12V); [15]) | IC50 (SW620 cells (KRAS G12V); [16]) | IC50 ([2]; KRAS G12V-GppNHp/RAF1 RBD HTRF) | IC50 ([3]; KRAS G12D-GppNHp/RAF1 RBD HTRF) | IC50 ([4]; KRAS WT-GppNHp/RAF1 RBD HTRF) | IC50 ([6]; KRAS G12R-GppNHp/RAF1 RBD HTRF) | IC50 (SW620 cells (KRAS G12V); [17])
CN(c1nc(OC[C@@]23CCCN2C[C@H](F)C3)nc2c(F)c(-c3ccc(F)c4sc(N)c(C#N)c34)c(C(F)(F)F)cc12)[C@H]1C[C@@H](O)C1 [Compound 19, 2-amino-7-fluoro-4-((S)-8-fluoro-2-(((2R,7aS)-2-fluorotetrahydro-1H-pyrrolizin-7a(5H)-yl)methoxy)-4-(((1s,3R)-3-hydroxycyclobutyl)(methyl)amino)-6-(trifluoromethyl)quinazolin-7-yl)benzo[b]thiophene-3-carbonitrile] | ≤ 100 nM | < 100 nM | < 100 nM | < 100 nM | 100 to 1000 nM | < 100 nM | < 100 nM | < 100 nM |  |  |  |  |  |  |  |  |  |  | 
CCN(c1nc(OC[C@@]23CCCN2C[C@H](F)C3)nc2c(F)c(-c3ccc(F)c4sc(N)c(C#N)c34)c(C(F)(F)F)cc12)[C@H]1C[C@@H](C)N(C(=O)[C@H]2CCO2)C1 (atropisomer, axis not shown) [Compound 752] | 100 to 1000 nM |  |  |  | 100 to 1000 nM |  |  |  | 100 to 1000 nM | < 100 nM | 100 to 1000 nM | < 100 nM | < 100 nM | < 100 nM |  |  |  |  | 
CCN(c1nc(OC[C@@]23CCCN2C[C@H](F)C3)nc2c(F)c(-c3ccc(F)c4sc(N)c(C#N)c34)c(C(F)(F)F)cc12)[C@H]1CCN(C(=O)O[C@@H]2CCOC2)C1 (atropisomer, axis not shown) [Compound 683] | 100 to 1000 nM |  |  |  | ≤ 100 nM |  |  |  | < 100 nM | < 100 nM | < 100 nM | < 100 nM | < 100 nM | < 100 nM |  |  |  |  | 
CCN(c1nc(OC[C@@]23CCCN2C[C@H](F)C3)nc2c(F)c(-c3ccc(F)c4sc(N)c(C#N)c34)c(C(F)(F)F)cc12)[C@H]1C[C@H](C)N(C(=O)N2CC(OC)C2)C1 (atropisomer, axis not shown) [Compound 764] | 100 to 1000 nM |  |  |  | ≤ 100 nM |  |  |  | < 100 nM | < 100 nM | < 100 nM | < 100 nM | < 100 nM | < 100 nM |  |  |  |  | 
CCN(c1nc(OC[C@@]23CCCN2C[C@H](F)C3)nc2c(F)c(-c3ccc(F)c4sc(N)c(C#N)c34)c(C(F)(F)F)cc12)[C@H]1CCN(C(=O)[C@@H]2C[C@@H]2C)C1 (atropisomer, axis not shown) [Compound 689] | 100 to 1000 nM |  |  |  | 100 to 1000 nM |  |  |  | < 100 nM | < 100 nM | 100 to 1000 nM | < 100 nM | < 100 nM | < 100 nM |  |  |  |  | 
CCN(c1nc(OC[C@@]23CCCN2C[C@H](F)C3)nc2c(F)c(-c3ccc(F)c4sc(N)c(C#N)c34)c(C(F)(F)F)cc12)[C@H]1CC(=O)N(CC(F)F)C1 (atropisomer, axis not shown) [Compound 613] | 100 to 1000 nM |  |  |  | ≤ 100 nM |  |  |  | 100 to 1000 nM | 100 to 1000 nM | 100 to 1000 nM | 100 to 1000 nM | < 100 nM | < 100 nM |  |  |  |  | 
CCN(c1nc(OC[C@@]23CCCN2C[C@H](F)C3)nc2c(F)c(-c3ccc(F)c4sc(N)c(C#N)c34)c(C(F)(F)F)cc12)[C@H]1CC(=O)N(C)C1 (atropisomer, axis not shown) [Compound 614] | 100 to 1000 nM |  |  |  | 100 to 1000 nM |  |  |  | < 100 nM | < 100 nM | < 100 nM | < 100 nM | < 100 nM | < 100 nM |  |  |  |  | 
CCN(c1nc(OC[C@@]23CCCN2C[C@H](F)C3)nc2c(F)c(-c3ccc(F)c4sc(N)c(C#N)c34)c(C(F)(F)F)cc12)[C@@H]1CCN(C(=O)C2CC2)C1 [Compound 329] | 100 to 1000 nM |  |  |  | 100 to 1000 nM |  |  |  |  |  |  |  | < 100 nM |  | 100 to 1000 nM | 100 to 1000 nM | 100 to 1000 nM | 100 to 1000 nM | < 100 nM
CCN(c1nc(OC[C@@]23CCCN2C[C@H](F)C3)nc2c(F)c(-c3ccc(F)c4sc(N)c(C#N)c34)c(C(F)(F)F)cc12)[C@@H]1CCN(C(C)=O)C1 [Compound 268] | 100 to 1000 nM | 100 to 1000 nM | < 100 nM | < 100 nM | 100 to 1000 nM | < 100 nM |  |  |  |  |  |  | < 100 nM |  |  |  |  |  | < 100 nM
CCN(c1nc(OC[C@@]23CCCN2C[C@H](F)C3)nc2c(F)c(-c3ccc(F)c4sc(N)c(C#N)c34)c(C(F)(F)F)cc12)[C@H]1CC(=O)N2CCC[C@@H]12 (atropisomer, axis not shown; (aS)) [Compound 697, 2-amino-4-((S)-4-(ethyl((1S,7aS)-3-oxohexahydro-1H-pyrrolizin-1-yl)amino)-8-fluoro-2-(((2R,7aS)-2-fluorotetrahydro-1H-pyrrolizin-7a(5H)-yl)methoxy)-6-(trifluoromethyl)quinazolin-7-yl)-7-fluorobenzo[b]thiophene-3-carbonitrile] | ≤ 100 nM |  |  |  | ≤ 100 nM |  |  |  | < 100 nM | < 100 nM | < 100 nM | < 100 nM | < 100 nM | < 100 nM |  |  |  |  | 
CCN(c1nc(OC[C@@]23CCCN2C[C@H](F)C3)nc2c(F)c(-c3ccc(F)c4sc(N)c(C#N)c34)c(C(F)(F)F)cc12)[C@H]1CCN(C(=O)C2CC2)C1 [Compound 331] | 100 to 1000 nM |  |  |  | 100 to 1000 nM |  |  |  |  |  |  |  | < 100 nM |  | 100 to 1000 nM | < 100 nM | 100 to 1000 nM | < 100 nM | < 100 nM
N#Cc1c(N)sc2c(F)ccc(-c3c(C(F)(F)F)cc4c(N5C[C@H]6C[C@@H]5CO6)nc(OC[C@@]56CCCN5C[C@H](F)C6)nc4c3F)c12 (single isomer, unassigned) [Compound 287] | 100 to 1000 nM |  |  |  | 100 to 1000 nM |  |  |  |  |  |  |  | < 100 nM |  | 100 to 1000 nM | 100 to 1000 nM | 100 to 1000 nM | 100 to 1000 nM | < 100 nM
